# Data reported in ChEMBL document CHEMBL3244355, “Quinolone antimicrobial agents. 2. Methylenedioxy positional isomers of oxolinic acid” (1979).
# Columns and labels:
# Acinetobacter sp. = assay: Antimicrobial activity against Acinetobacter sp. 2347 assessed as growth inhibition by agar dilution-streak method; assay type: functional
# Escherichia coli = assay: Antimicrobial activity against Escherichia coli ATCC 26 assessed as growth inhibition by agar dilution-streak method; assay type: functional
# Klebsiella pneumoniae = assay: Antimicrobial activity against Klebsiella pneumoniae ATCC 8045 assessed as growth inhibition by agar dilution-streak method; assay type: functional
# Proteus mirabilis = assay: Antimicrobial activity against Proteus mirabilis Finland 9 assessed as growth inhibition by agar dilution-streak method; assay type: functional
# Pseudomonas aeruginosa = assay: Antimicrobial activity against Pseudomonas aeruginosa BMH 1 assessed as growth inhibition by agar dilution-streak method; assay type: functional
# Salmonella typhi = assay: Antimicrobial activity against Salmonella typhi ATCC 9992 assessed as growth inhibition by agar dilution-streak method; assay type: functional, Salmonella enterica subsp. enterica serovar Typhi; conditions: Salmonella enterica
# Serratia marcescens = assay: Antimicrobial activity against Serratia marcescens ATCC 4003 assessed as growth inhibition by agar dilution-streak method; assay type: functional
# Shigella sonnei = assay: Antimicrobial activity against Shigella sonnei ATCC 9290 assessed as growth inhibition by agar dilution-streak method; assay type: functional
# Staphylococcus aureus = assay: Antimicrobial activity against Staphylococcus aureus ATCC 6538P assessed as growth inhibition by agar dilution-streak method; assay type: functional
# Enterococcus faecalis = assay: Antimicrobial activity against Streptococcus faecalis ATCC 8043 assessed as growth inhibition by agar dilution-streak method; assay type: functional
# Proteus vulgaris = assay: Antimicrobial activity against Proteus vulgaris ATCC 6897 assessed as growth inhibition by agar dilution-streak method; assay type: functional
SMILES,MIC (Acinetobacter sp.) [µg/mL],MIC (Escherichia coli) [µg/mL],MIC (Klebsiella pneumoniae) [µg/mL],MIC (Proteus mirabilis) [µg/mL],MIC (Pseudomonas aeruginosa) [µg/mL],MIC (Salmonella typhi) [µg/mL],MIC (Serratia marcescens) [µg/mL],MIC (Shigella sonnei) [µg/mL],MIC (Staphylococcus aureus) [µg/mL],MIC (Enterococcus faecalis) [µg/mL],MIC (Proteus vulgaris) [µg/mL]
CCn1cc(C(=O)O)c(=O)c2ccc3c(c21)OCO3,6.25,6.25,1.56,50,> 100,12.5,3.13,3.13,25,> 100,3.13
CCn1cc(C(=O)O)c(=O)c2c3c(ccc21)OCO3,> 100,> 100,25,> 100,> 100,> 100,> 100,> 100,> 100,> 100,100
CCn1cc(C(=O)O)c(=O)c2cc3c(cc21)OCO3 [OXOLINIC ACID],0.4,0.1,> 0.05,0.78,12.5,0.2,0.1,0.2,0.78,25,> 0.05
